Laboratory results as given in ChEMBL document CHEMBL1201862, “PubChem BioAssay data set” (2004).
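Following 48 hours of exposure in 96-well plates, responses at five concentrations were used to interpolate endpoints linearly. GI50 = concentration required for 50% inhibition of growth.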 Activity calls are given as the source filed them. Cut-off read from the data, not from the text of the source: active = GI50 up to about 1.1 µM and inactive = higher.

Columns and labels:
Assay in all cases: DTP human tumour cell line panel, 48 h
Hs-578T = system: Hs-578T
MCF7 = system: MCF7
HOP-62 = system: HOP-62
Malme-3M = system: Malme-3M
LOX IMVI = system: LOX IMVI
SF-268 = system: SF-268
A498 = system: A498
HT-29 = system: HT-29
NCI-H226 = system: NCI-H226
SR = system: SR
SF-295 = system: SF-295
HL-60 = system: HL-60
RPMI-8226 = system: RPMI-8226
COLO 205 = system: COLO 205
IGROV-1 = system: IGROV-1
HCT-116 = system: HCT-116
MDA-N = system: MDA-N
NCI-H23 = system: NCI-H23
CCRF-CEM = system: CCRF-CEM
MOLT-4 = system: MOLT-4
OVCAR-3 = system: OVCAR-3
SK-MEL-5 = system: SK-MEL-5
BT-549 = system: BT-549
ACHN = system: ACHN
SN12C = system: SN12C
SNB-75 = system: SNB-75
UACC-257 = system: UACC-257
OVCAR-5 = system: OVCAR-5
EKVX = system: EKVX
TK-10 = system: TK-10
RXF 393 = system: RXF 393
UACC-62 = system: UACC-62
K562 = system: K562
A549 = system: A549
UO-31 = system: UO-31
HCC 2998 = system: HCC 2998
HCT-15 = system: HCT-15
NCI-H460 = system: NCI-H460
DU-145 = system: DU-145
M14 = system: M14
SNB-19 = system: SNB-19
786-0 = system: 786-0
OVCAR-8 = system: OVCAR-8
SW-620 = system: SW-620
PC-3 = system: PC-3
OVCAR-4 = system: OVCAR-4
MDA-MB-435 = system: MDA-MB-435
CAKI-1 = system: CAKI-1
KM12 = system: KM12
SK-OV-3 = system: SK-OV-3
SK-MEL-28 = system: SK-MEL-28
MDA-MB-231 = system: MDA-MB-231
SF-539 = system: SF-539
U-251 = system: U-251

With Clc1c(C(Cl)(Cl)Cl)nsc1N1CCCCC1 the GI50 (Hs-578T) was 31.3 µM (inactive), the GI50 (MCF7) was 26.1 µM (inactive) and the GI50 (HOP-62) was 23 µM (inactive). The GI50 (Malme-3M) was 13.5 µM (inactive), the GI50 (LOX IMVI) was 16.2 µM (inactive) and the GI50 (SF-268) was 34 µM (inactive). The GI50 (A498) was 20 µM (inactive), the GI50 (HT-29) was 16 µM (inactive) and the GI50 (NCI-H226) was 15.1 µM (inactive). For the same compound, the GI50 (SR) was 16.1 µM (inactive), the GI50 (SF-295) was 22.3 µM (inactive) and the GI50 (HL-60) was 16.6 µM (inactive). The GI50 (RPMI-8226) was 12.6 µM (inactive), the GI50 (COLO 205) was 16.5 µM (inactive) and the GI50 (IGROV-1) was 36 µM (inactive). The GI50 (HCT-116) was 24.3 µM (inactive), the GI50 (MDA-N) was 31 µM (inactive) and the GI50 (NCI-H23) was 14 µM (inactive). For the same compound, the GI50 (CCRF-CEM) was 16.5 µM (inactive), the GI50 (MOLT-4) was 15.2 µM (inactive) and the GI50 (OVCAR-3) was 20.8 µM (inactive). The GI50 (SK-MEL-5) was 16 µM (inactive), the GI50 (BT-549) was 18.3 µM (inactive) and the GI50 (ACHN) was 29.8 µM (inactive). The GI50 (SN12C) was 28 µM (inactive), the GI50 (SNB-75) was 29 µM (inactive) and the GI50 (UACC-257) was 23.3 µM (inactive). For the same compound, the GI50 (OVCAR-5) was 33.7 µM (inactive), the GI50 (EKVX) was 29.9 µM (inactive) and the GI50 (TK-10) was 31.6 µM (inactive). For the same compound, the GI50 (RXF 393) was 16.8 µM (inactive), the GI50 (UACC-62) was 22 µM (inactive) and the GI50 (K562) was 19.1 µM (inactive). For the same compound, the GI50 (A549) was 33.9 µM (inactive), the GI50 (UO-31) was 11.4 µM (inactive) and the GI50 (HCC 2998) was 22.2 µM (inactive). For the same compound, the GI50 (HCT-15) was 26.5 µM, the GI50 (NCI-H460) was 33.6 µM (inactive) and the GI50 (DU-145) was 28.4 µM (inactive). For the same compound, the GI50 (M14) was 21 µM (inactive), the GI50 (SNB-19) was 20.7 µM (inactive) and the GI50 (786-0) was 17.9 µM (inactive). The GI50 (OVCAR-8) was 27.4 µM (inactive), the GI50 (SW-620) was 32.4 µM (inactive) and the GI50 (PC-3) was 31 µM (inactive). The GI50 (OVCAR-4) was 25.6 µM (inactive), the GI50 (MDA-MB-435) was 20.9 µM (inactive) and the GI50 (CAKI-1) was 19.4 µM (inactive). The GI50 (KM12) was 20.7 µM (inactive), the GI50 (SK-OV-3) was 27.9 µM (inactive) and the GI50 (SK-MEL-28) was 33 µM (inactive). For the same compound, the GI50 (MDA-MB-231) was 23.8 µM (inactive), the GI50 (SF-539) was 25.3 µM (inactive) and the GI50 (U-251) was 23.5 µM (inactive).
